Assay results taken from the NIST ThermoML archive (doi:10.1021/je101206u).
Numbers after ± are expanded uncertainties.

Assay: xn = mol fraction of the nth substance listed
Settings: 101 kPa, Liquid

OCCO [1,2-ethanediol] + CCCCn1cc[n+](C)c1.F[B-](F)(F)F
x2 = 0
Settings	mass density [kg/m3]	viscosity [mPa·s]
293.15 K	1113.45 ± 1.3	21.44 ± 2
303.15 K	1106.45 ± 1.2	14.33 ± 1.3
313.15 K	1099.38 ± 1.2	10.01 ± 0.93
323.15 K	1092.24 ± 1.1	7.121 ± 0.66
333.15 K	1085 ± 1.1	5.33 ± 0.5
343.15 K	1077.65 ± 1	4.103 ± 0.38
353.15 K	1070.17 ± 0.99	3.242 ± 0.3

CCCCn1cc[n+](C)c1.F[B-](F)(F)F [1-butyl-3-methylimidazolium tetrafluoroborate] + C[S+](C)[O-]
Settings	mass density [kg/m3]	viscosity [mPa·s]
293.15 K, x1 = 0.0722	1120.91 ± 1.3	3.514 ± 0.33
293.15 K, x1 = 0.1764	1142.23 ± 1.4	6.283 ± 0.58
293.15 K, x1 = 0.2145	1148.47 ± 1.4	7.911 ± 0.74
293.15 K, x1 = 0.3225	1162.89 ± 1.5	13.46 ± 1.3
293.15 K, x1 = 0.4189	1172.83 ± 1.6	20.76 ± 1.9
293.15 K, x1 = 0.607	1186.94 ± 1.7	42.17 ± 3.9
293.15 K, x1 = 0.6557	1188.45 ± 1.7	48.88 ± 4.5
293.15 K, x1 = 0.8283	1197.44 ± 1.7	83.33 ± 17
293.15 K, x1 = 0.9155	1201.03 ± 1.8	107.2 ± 33
293.15 K, x1 = 1	1204.44 ± 1.8	136.9 ± 56
298.15 K, x1 = 0.0722	1116.22 ± 1.2	–
298.15 K, x1 = 0.1764	1137.84 ± 1.4	–
298.15 K, x1 = 0.2145	1144.16 ± 1.4	–
298.15 K, x1 = 0.3225	1158.77 ± 1.5	–
298.15 K, x1 = 0.4189	1168.84 ± 1.6	–
298.15 K, x1 = 0.607	1182.57 ± 1.6	–
298.15 K, x1 = 0.6557	1185.38 ± 1.7	–
298.15 K, x1 = 0.8283	1193.78 ± 1.7	–
298.15 K, x1 = 0.9155	1197.43 ± 1.7	–
298.15 K, x1 = 1	1200.89 ± 1.8	–
303.15 K, x1 = 0.0722	1111.54 ± 1.2	2.827 ± 0.26
303.15 K, x1 = 0.1764	1133.45 ± 1.3	4.839 ± 0.45
303.15 K, x1 = 0.2145	1139.87 ± 1.4	5.968 ± 0.56
303.15 K, x1 = 0.3225	1154.66 ± 1.5	9.732 ± 0.91
303.15 K, x1 = 0.4189	1164.85 ± 1.5	14.46 ± 1.3
303.15 K, x1 = 0.607	1179.32 ± 1.6	27.68 ± 2.6
303.15 K, x1 = 0.6557	1181 ± 1.6	31.52 ± 2.9
303.15 K, x1 = 0.8283	1190.12 ± 1.7	51.43 ± 0.75
303.15 K, x1 = 0.9155	1193.83 ± 1.7	64.87 ± 6.8
303.15 K, x1 = 1	1197.34 ± 1.7	81.4 ± 16
313.15 K, x1 = 0.0722	1102.21 ± 1.1	2.324 ± 0.22
313.15 K, x1 = 0.1764	1124.71 ± 1.3	3.845 ± 0.36
313.15 K, x1 = 0.2145	1131.31 ± 1.3	4.668 ± 0.43
313.15 K, x1 = 0.3225	1146.47 ± 1.4	7.347 ± 0.68
313.15 K, x1 = 0.4189	1156.91 ± 1.5	10.58 ± 0.98
313.15 K, x1 = 0.607	1171.76 ± 1.6	19.29 ± 1.8
313.15 K, x1 = 0.6557	1173.63 ± 1.6	21.66 ± 2
313.15 K, x1 = 0.8283	1182.84 ± 1.6	33.94 ± 3.2
313.15 K, x1 = 0.9155	1186.65 ± 1.7	42.14 ± 3.9
313.15 K, x1 = 1	1190.27 ± 1.7	51.79 ± 0.85
323.15 K, x1 = 0.0722	1092.89 ± 1.1	1.951 ± 0.18
323.15 K, x1 = 0.1764	1116.01 ± 1.2	3.137 ± 0.29
323.15 K, x1 = 0.2145	1122.79 ± 1.3	3.767 ± 0.35
323.15 K, x1 = 0.3225	1138.33 ± 1.4	5.742 ± 0.54
323.15 K, x1 = 0.4189	1149.02 ± 1.4	8.052 ± 0.75
323.15 K, x1 = 0.607	1164.25 ± 1.5	14.12 ± 1.3
323.15 K, x1 = 0.6557	1166.3 ± 1.5	15.79 ± 1.5
323.15 K, x1 = 0.8283	1175.62 ± 1.6	25.01 ± 2.3
323.15 K, x1 = 0.9155	1179.53 ± 1.6	29.99 ± 2.8
323.15 K, x1 = 1	1183.24 ± 1.6	38.04 ± 3.5
333.15 K, x1 = 0.0722	1083.58 ± 1	1.668 ± 0.16
333.15 K, x1 = 0.1764	1107.34 ± 1.2	2.615 ± 0.24
333.15 K, x1 = 0.2145	1114.3 ± 1.2	3.118 ± 0.29
333.15 K, x1 = 0.3225	1130.22 ± 1.3	4.618 ± 0.43
333.15 K, x1 = 0.4189	1141.18 ± 1.4	6.327 ± 0.59
333.15 K, x1 = 0.607	1156.79 ± 1.5	10.69 ± 0.99
333.15 K, x1 = 0.6557	1158.97 ± 1.5	11.78 ± 1.1
333.15 K, x1 = 0.8283	1168.44 ± 1.6	17.38 ± 1.6
333.15 K, x1 = 0.9155	1172.45 ± 1.6	20.96 ± 1.9
333.15 K, x1 = 1	1176.25 ± 1.6	24.97 ± 2.3
343.15 K, x1 = 0.0722	1074.29 ± 0.97	1.447 ± 0.14
343.15 K, x1 = 0.1764	1098.7 ± 1.1	2.222 ± 0.21
343.15 K, x1 = 0.2145	1105.83 ± 1.2	2.638 ± 0.25
343.15 K, x1 = 0.3225	1122.16 ± 1.3	3.801 ± 0.35
343.15 K, x1 = 0.4189	1133.38 ± 1.3	5.104 ± 0.47
343.15 K, x1 = 0.607	1149.37 ± 1.4	8.359 ± 0.78
343.15 K, x1 = 0.6557	1151.6 ± 1.4	8.977 ± 0.84
343.15 K, x1 = 0.8283	1161.32 ± 1.5	13.21 ± 1.2
343.15 K, x1 = 0.9155	1165.43 ± 1.5	15.78 ± 1.5
343.15 K, x1 = 1	1169.32 ± 1.6	18.49 ± 1.7
353.15 K, x1 = 0.0722	1064.99 ± 0.91	1.272 ± 0.12
353.15 K, x1 = 0.1764	1090.08 ± 1.1	1.918 ± 0.18
353.15 K, x1 = 0.2145	1097.39 ± 1.1	2.278 ± 0.21
353.15 K, x1 = 0.3225	1114.12 ± 1.2	3.195 ± 0.3
353.15 K, x1 = 0.4189	1125.62 ± 1.3	4.21 ± 0.39
353.15 K, x1 = 0.607	1141.99 ± 1.4	6.702 ± 0.62
353.15 K, x1 = 0.6557	1144.28 ± 1.4	7.182 ± 0.67
353.15 K, x1 = 0.8283	1154.24 ± 1.5	10.34 ± 0.96
353.15 K, x1 = 0.9155	1158.44 ± 1.5	12.24 ± 1.1
353.15 K, x1 = 1	1162.44 ± 1.5	14.37 ± 1.3
